Laboratory results reported in US8440819B2, “Therapeutic substituted beta-lactams” (Allergan, Inc., priority 2008, dated 2013).

Tests used:
normotensive dogs = assay: Intraocular pressure and ocular surface hyperemia in normotensive dogs; type: in vivo, dog; details: 0.01%, once daily for 5 days
Procedure: (§1) U.S. Pat. No. 7,091,231 describes the methods used to carry out the tests reported below.
(§2) Isopropyl (5-(3-((2S)-1-(4-(1-hydroxyhexyl)phenyl)-4-oxoazetidin-2-yl)propyl)thiophene-2-carboxylate (12) was tested in normotensive dogs at 0.01%, dosing once daily for 5 days. The maximum intraocular pressure (IOP) decrease from baseline was 3.7 mmHg (25%) at 6 h; the maximum ocular surface hyperemia (OSH) score was 1.7 at 50 h. This compound was also tested in laser-induced hypertensive monkeys, using one single day dose. At 0.01%, the maximum IOP decrease from baseline was 12.6 mmHg (35%) at 24 h.

[1] = test system: laser-induced hypertensive monkeys; assay: Intraocular pressure in laser-induced hypertensive monkeys; type: in vivo, monkey; details: 0.01%, one single day dose, at 24 h
Procedure: as §1, §2

EP2 [2] = target: T1, EP2 (Homo sapiens, UniProt P43116); assay: EP2 flipr; type: cell-based
Source text: (§3) U.S. patent application Ser. No. 11/553,143, filed on Oct. 26, 2006, incorporated by reference herein, describes the methods used to obtain the in vitro data in Table 1 below.

EP2 [3] = target: T1, EP2; assay: EP2 cAMP; type: cell-based
Source text: as §3

EP2 [4] = target: T1, EP2; assay: EP2 binding (Ki)
Source text: as §3

EP4 [5] = target: T2, EP4 (Homo sapiens, UniProt P35408); assay: EP4 flipr; type: cell-based
Source text: as §3

EP4 [6] = target: T2, EP4; assay: EP4 binding (Ki); details: read-out: EP4 data Kl
Source text: as §3

hEP3A = target: T3, hEP3A (Homo sapiens, UniProt P43115); assay: Other receptors functional EC50, hEP3A; type: cell-based
T3 sequence (P43115 1-390): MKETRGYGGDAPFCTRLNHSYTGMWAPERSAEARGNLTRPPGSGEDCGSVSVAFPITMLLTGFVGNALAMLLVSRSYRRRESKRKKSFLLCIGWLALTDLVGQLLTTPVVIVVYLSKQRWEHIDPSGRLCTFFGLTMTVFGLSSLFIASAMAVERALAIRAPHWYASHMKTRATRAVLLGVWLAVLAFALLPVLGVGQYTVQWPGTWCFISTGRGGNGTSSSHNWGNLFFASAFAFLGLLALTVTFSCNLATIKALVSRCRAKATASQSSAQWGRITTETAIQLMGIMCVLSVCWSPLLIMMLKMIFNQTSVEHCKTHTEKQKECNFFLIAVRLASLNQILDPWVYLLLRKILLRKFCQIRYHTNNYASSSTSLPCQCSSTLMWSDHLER
Source text: as §3

hDP = target: T4, hDP (Homo sapiens, UniProt Q13258); assay: Other receptors functional EC50, hDP; type: cell-based
T4 sequence (Q13258 1-359): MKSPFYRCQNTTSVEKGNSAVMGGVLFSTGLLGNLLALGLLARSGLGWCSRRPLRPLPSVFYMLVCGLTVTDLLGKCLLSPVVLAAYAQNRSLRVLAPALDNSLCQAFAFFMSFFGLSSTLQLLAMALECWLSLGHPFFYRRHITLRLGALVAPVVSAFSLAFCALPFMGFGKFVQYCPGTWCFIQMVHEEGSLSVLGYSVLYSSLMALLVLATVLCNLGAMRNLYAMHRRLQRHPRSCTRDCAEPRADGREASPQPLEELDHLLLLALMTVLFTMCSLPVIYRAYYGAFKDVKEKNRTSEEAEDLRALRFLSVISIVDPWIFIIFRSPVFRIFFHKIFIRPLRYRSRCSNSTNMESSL
Source text: as §3

T1 sequence (P43116 whole entry): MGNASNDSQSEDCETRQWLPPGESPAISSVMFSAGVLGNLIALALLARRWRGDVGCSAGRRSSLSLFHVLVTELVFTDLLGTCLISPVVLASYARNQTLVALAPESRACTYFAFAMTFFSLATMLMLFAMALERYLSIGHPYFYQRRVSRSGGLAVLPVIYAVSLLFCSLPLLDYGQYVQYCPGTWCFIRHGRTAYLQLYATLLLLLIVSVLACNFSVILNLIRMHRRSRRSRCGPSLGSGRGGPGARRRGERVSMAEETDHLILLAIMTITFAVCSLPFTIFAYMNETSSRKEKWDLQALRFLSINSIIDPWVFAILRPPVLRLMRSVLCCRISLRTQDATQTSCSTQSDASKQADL
T2 sequence (P35408 whole entry): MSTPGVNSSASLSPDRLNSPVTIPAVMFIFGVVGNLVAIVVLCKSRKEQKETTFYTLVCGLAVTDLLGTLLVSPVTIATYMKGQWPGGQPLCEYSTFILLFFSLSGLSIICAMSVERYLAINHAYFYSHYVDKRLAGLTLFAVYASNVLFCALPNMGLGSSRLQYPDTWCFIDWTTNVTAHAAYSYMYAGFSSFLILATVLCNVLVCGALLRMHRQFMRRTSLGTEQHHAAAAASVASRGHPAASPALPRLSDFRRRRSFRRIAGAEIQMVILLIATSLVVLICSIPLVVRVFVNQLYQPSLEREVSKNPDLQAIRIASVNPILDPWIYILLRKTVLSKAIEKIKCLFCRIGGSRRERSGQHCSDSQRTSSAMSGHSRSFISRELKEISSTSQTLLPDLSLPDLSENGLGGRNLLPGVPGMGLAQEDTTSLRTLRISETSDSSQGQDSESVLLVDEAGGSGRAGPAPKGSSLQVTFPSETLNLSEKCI

Row | maximum ocular surface hyperemia (OSH) score (normotensive dogs; at 50 h) | EC50 (EP2 [2]) [nM] | EC50 (EP2 [3]) [nM] | Ki (EP2 [4]) [nM] | EC50 (EP4 [5]) [nM] | Ki (EP4 [6]) [nM] | EC50 (hEP3A) [nM] | EC50 (hDP) [nM] | Structure (SMILES) | maximum intraocular pressure (IOP) decrease from baseline (normotensive dogs; at 6 h) [mmHg] | maximum intraocular pressure (IOP) decrease from baseline, percent (normotensive dogs; at 6 h) [%] | maximum IOP decrease from baseline [1] [mmHg] | maximum IOP decrease from baseline, percent [1] [%]
1 | 1.7 | – | – | – | – | – | – | – | CCCCCC(O)c1ccc(N2C(=O)C[C@@H]2CCCc2ccc(C(=O)OC(C)C)s2)cc1 (stereo partly drawn) [compound 12] | 3.7 | 25 | 12.6 | 35
2 | – | 1.1 | 0.4 | 10 | > 10000 | 1450 | 42 | 4740 | CCCCCC(O)c1ccc(N2C(=O)C[C@@H]2CCCc2ccc(C(=O)O)s2)cc1 (mixture of isomers) [compound 11] | – | – | – | –
